Converted amounts (≈) assume the structure as drawn. Blank lines part the entries; values can stand above or below the compound they belong to.
Key:
[1] = target: T1, Pancreatic alpha-amylase (Sus scrofa, UniProt P00690); test: Inhibition of porcine pancreatic alpha-amylase using 1% starch as substrate preincubated for 10 mins followed by substrate addition and measured after 10 mins by absorbance method
T1 sequence (P00690 whole entry): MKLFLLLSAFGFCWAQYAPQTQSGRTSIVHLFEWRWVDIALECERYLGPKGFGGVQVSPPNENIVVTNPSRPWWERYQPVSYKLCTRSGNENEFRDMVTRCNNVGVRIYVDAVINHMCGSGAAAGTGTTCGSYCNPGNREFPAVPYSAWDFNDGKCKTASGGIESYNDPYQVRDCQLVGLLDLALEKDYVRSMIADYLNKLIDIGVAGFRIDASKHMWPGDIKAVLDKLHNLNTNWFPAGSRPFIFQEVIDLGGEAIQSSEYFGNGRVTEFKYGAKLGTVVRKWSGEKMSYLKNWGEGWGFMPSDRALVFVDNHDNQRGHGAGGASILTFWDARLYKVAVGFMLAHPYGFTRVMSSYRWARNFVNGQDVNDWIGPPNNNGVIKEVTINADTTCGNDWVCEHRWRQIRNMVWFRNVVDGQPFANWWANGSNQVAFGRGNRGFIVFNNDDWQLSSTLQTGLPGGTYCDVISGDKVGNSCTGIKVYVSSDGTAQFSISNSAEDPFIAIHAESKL

[2] = tested on: Entamoeba histolytica; test: Antiamoebic activity against Entamoeba histolytica HK9 ATCC 30015 incubated for 72 hrs by trypan blue staining based assay; type: functional, organism-based; details: ATCC 30015, 72 h
[3] = tested on: Giardia intestinalis; test: Antigiardial activity against Giardia intestinalis WB ATCC 30957 incubated for 72 hrs by trypan blue staining based assay; type: functional, organism-based; details: Giardia duodenalis, WB ATCC 30957, 72 h
[4] = tested on: Bacillus spizizenii; test: Antibacterial activity against Bacillus subtilis ATCC 6633 by MH media dilution method; type: functional
[5] = tested on: Escherichia coli; test: Antibacterial activity against Escherichia coli ATCC 35218 by MH media dilution method; type: functional
[6] = tested on: Pseudomonas aeruginosa; test: Antibacterial activity against Pseudomonas aeruginosa ATCC 13525 by MH media dilution method; type: functional
[7] = tested on: Escherichia coli; test: Antibacterial activity against Escherichia coli ATCC 35218 incubated for 24 hrs by two fold serial dilution method; type: functional
[8] = tested on: Pseudomonas aeruginosa; test: Antibacterial activity against Pseudomonas aeruginosa ATCC 13525 incubated for 24 hrs by two fold serial dilution method; type: functional
[9] = tested on: Bacillus spizizenii; test: Antibacterial activity against Bacillus subtilis ATCC 6633 incubated for 24 hrs by two fold serial dilution method; type: functional
[10] = tested on: Staphylococcus aureus; test: Antibacterial activity against Staphylococcus aureus ATCC 6538 incubated for 24 hrs by two fold serial dilution method; type: functional
[11] = tested on: Staphylococcus aureus; test: Antibacterial activity against Staphylococcus aureus ATCC 6538 by MH media dilution method; type: functional
[12] = tested on: Leishmania braziliensis; test: Antileishmanial activity against promastigote form of Leishmania braziliensis MHOM/BR/75/M2903 measured for 7 days by cell counting method; type: functional; details: MHOM/BR/75/M2903, 168 h, time 7 day
[13] = tested on: Leishmania mexicana; test: Antileishmanial activity against promastigote form of Leishmania mexicana MHOM/BZ/82/Bel21 measured for 7 days by cell counting method; type: functional; details: MHOM/BZ/82/Bel21, 168 h, time 7 day
[14] = target: Carbonic anhydrase 2 (Homo sapiens, UniProt P00918); test: Inhibition of recombinant human carbonic anhydrase 2 preincubated with enzyme for 15 mins by phenol red dye based stopped flow CO2 hydration assay
[15] = target: Carbonic anhydrase 9 (Homo sapiens, UniProt Q16790); test: Inhibition of recombinant human carbonic anhydrase 9 preincubated with enzyme for 15 mins by phenol red dye based stopped flow CO2 hydration assay
[16] = tested on: Candida albicans; test: Antifungal activity against Candida albicans ATCC 10231 incubated for 24 hrs by broth microdilution method; type: functional
[17] = tested on: U-251; test: Antiproliferative activity against human U-251 cells incubated for 24 to 48 hrs by CCK8 assay; type: functional, cell-based
[18] = tested on: HeLa; test: Antiproliferative activity against human Hela cells incubated for 24 to 48 hrs by CCK8 assay; type: functional, cell-based
[19] = tested on: HepG2; test: Antiproliferative activity against human HepG2 cells incubated for 24 to 48 hrs by CCK8 assay; type: functional, cell-based
[20] = tested on: A549; test: Antiproliferative activity against human A549 cells incubated for 24 to 48 hrs by CCK8 assay; type: functional, cell-based
[21] = tested on: Clostridium sporogenes; test: Antimicrobial activity against Clostridium sporogenes ATCC 19404 incubated for 24 hrs by broth microdilution method; type: functional
[22] = tested on: Entamoeba histolytica; test: Antiamoebic activity against Entamoeba histolytica HK9 ATCC 30015 by trypan blue staining based assay; type: functional, organism-based
[23] = tested on: Giardia intestinalis; test: Antigiardial activity against Giardia intestinalis WB ATCC 30957 by trypan blue staining based assay; type: functional, organism-based; details: Giardia duodenalis
[24] = Inhibition of Escherichia coli N-terminal His-tagged FabH expressed in Escherichia coli BL21(DE3) by liquid scintillation counting method
[25] = Acute oral toxicity in mouse assessed as induction of mortality measured once daily for 14 days; details: in vivo, time 14 day
[26] = Acute oral toxicity in mouse assessed as signs of gross toxicity measured once daily for 14 days; details: in vivo, time 14 day
[27] = Acute oral toxicity in mouse assessed as behavioral changes measured once daily for 14 days; details: in vivo, time 14 day
[28] = tested on: Escherichia coli; test: Antibacterial activity against Escherichia coli ATCC 8739 incubated for 24 hrs by broth microdilution method; type: functional
[29] = tested on: Staphylococcus aureus; test: Antibacterial activity against Staphylococcus aureus ATCC 6538P incubated for 24 hrs by broth microdilution method; type: functional

IC50 [1]: < 2.98 µM
SMILES: Cc1ncc([N+](=O)[O-])n1CCOCc1ccc(F)cc1Br

SMILES: O=C(O)/C=C/c1ccc([N+](=O)[O-])o1
IC50 [2]: 55.7 µM
IC50 [3]: 67.5 µM

SMILES: CC1(C)S[C@@H]2[C@H](NC(=O)Cc3ccccc3)C(=O)N2[C@H]1C(=O)O [PENICILLIN G]
MIC [4]: 0.98 µg/mL (≈ 2.93 µM)
MIC [5]: 7.82 µg/mL (≈ 23.4 µM)
MIC [6]: 7.82 µg/mL (≈ 23.4 µM)
MIC [7]: 3.13 µg/mL (≈ 9.36 µM)
MIC [8]: 6.25 µg/mL (≈ 18.7 µM)
MIC [9]: 1.56 µg/mL (≈ 4.67 µM)
MIC [10]: 6.25 µg/mL (≈ 18.7 µM)
MIC [11]: 1.96 µg/mL (≈ 5.86 µM)

IC50 [1]: < 2.98 µM
SMILES: Cc1ncc([N+](=O)[O-])n1CCOCc1cccc(Cl)c1

SMILES: Cc1ncc([N+](=O)[O-])n1CCSCOC(=O)c1ccc(O)c(O)c1
LC50 [12]: 13 µM
LC50 [13]: 11 µM

IC50 [14]: 0.07 µM
IC50 [15]: 0.135 µM
SMILES: Cc1ncc([N+](=O)[O-])n1CCOc1ccc(/C=N\c2ccc(S(=O)(=O)NC(=N)N)cc2)cc1

MIC [16]: 170 µM (≈ 46.3 µg/mL)
SMILES: Cc1ccc(/C=N/CCn2c([N+](=O)[O-])cnc2C)cc1

IC50 [17]: 0.33 µM
IC50 [18]: 0.04 µM
IC50 [19]: 0.11 µM
IC50 [20]: 0.1 µM
SMILES: C[C@@H]1CCN(C(=O)CC#N)C[C@@H]1N(C)c1ncnc2[nH]ccc12 [TOFACITINIB]

SMILES: Cc1ncc([N+](=O)[O-])n1CCSCO
LC50 [12]: 950 µM
LC50 [13]: 2250 µM

MIC [4]: 3.91 µg/mL (≈ 12.1 µM)
MIC [5]: 3.91 µg/mL (≈ 12.1 µM)
MIC [6]: 0.98 µg/mL (≈ 3.03 µM)
MIC [11]: 3.91 µg/mL (≈ 12.1 µM)
SMILES: O=C(N[C@H](CO)[C@H](O)c1ccc([N+](=O)[O-])cc1)C(Cl)Cl [CHLORAMPHENICOL]

MIC [16]: 170 µM (≈ 47 µg/mL)
SMILES: Cc1ncc([N+](=O)[O-])n1CC/N=C/c1ccc(F)cc1

SMILES: Cc1ncc([N+](=O)[O-])n1CCSCOC(=O)c1cc(O)c(O)c(O)c1
LC50 [12]: 4 µM
LC50 [13]: 1 µM

IC50 [1]: < 2.98 µM
SMILES: Cc1ncc([N+](=O)[O-])n1CCOCc1ccc(C#N)cc1

MIC [21]: 29.9 µM (≈ 12.2 µg/mL)
SMILES: Cc1ncc([N+](=O)[O-])n1CCn1c(-c2ccncc2)nn(-c2ccccc2)c1=S
IC50 [22]: 3.27 µM
IC50 [23]: 0.76 µM

IC50 [1]: < 2.98 µM
SMILES: Cc1cc(COCCn2c([N+](=O)[O-])cnc2C)ccc1[N+](=O)[O-]

SMILES: Cc1ccnc(NS(=O)(=O)c2ccc(/N=C/c3ccc(C(=O)OCCn4c([N+](=O)[O-])cnc4C)cc3)cc2)n1
IC50 [24]: 5.59 µM
MIC [7]: 3.13 µg/mL (≈ 5.7 µM)
MIC [8]: 12.5 µg/mL (≈ 22.7 µM)
MIC [9]: 6.25 µg/mL (≈ 11.4 µM)
MIC [10]: 12.5 µg/mL (≈ 22.7 µM)
LD50 at 336 h [25]: > 5000 mg/kg
LD50 at 336 h [26]: > 5000 mg/kg
LD50 at 336 h [27]: > 5000 mg/kg

IC50 [1]: < 2.98 µM
SMILES: Cc1ccccc1COCCn1c([N+](=O)[O-])cnc1C

MIC [28]: 760 µM (≈ 235 µg/mL)
MIC [29]: 760 µM (≈ 235 µg/mL)
MIC [16]: 170 µM (≈ 52.5 µg/mL)
SMILES: Cc1ncc([N+](=O)[O-])n1CC/N=C/c1cc(Cl)ccc1O

IC50 [1]: < 2.98 µM
SMILES: Cc1ncc([N+](=O)[O-])n1CCOCc1ccc(F)cc1

IC50 [1]: < 2.98 µM
SMILES: Cc1ncc([N+](=O)[O-])n1CCOCc1ccc(Cl)cc1

IC50 [1]: 0.38 µM
SMILES: Cc1cccc(COCCn2c([N+](=O)[O-])cnc2C)c1

MIC [28]: 2.3 µM (≈ 0.804 µg/mL)
MIC [29]: 0.036 µM (≈ 0.0126 µg/mL)
SMILES: CC1(C)S[C@@H]2[C@H](NC(=O)[C@H](N)c3ccccc3)C(=O)N2[C@H]1C(=O)O [AMPICILLIN]

IC50 [1]: < 2.98 µM
SMILES: Cc1ncc([N+](=O)[O-])n1CCOCc1cccc([N+](=O)[O-])c1

IC50 [1]: < 2.98 µM
SMILES: Cc1ncc([N+](=O)[O-])n1CCOCc1ccc[nH]1

IC50 [1]: < 2.98 µM
SMILES: Cc1ncc([N+](=O)[O-])n1CCOCc1ccccc1

IC50 [1]: < 2.98 µM
SMILES: COc1ccc(COCCn2c([N+](=O)[O-])cnc2C)cc1

SMILES: Cc1ncc([N+](=O)[O-])n1CCN1CCN(c2ccnc3cc(Cl)ccc23)CC1
IC50 [2]: 0.96 µM

— ChEMBL document CHEMBL4813920, “Metronidazole-conjugates: A comprehensive review of recent developments towards synthesis and medicinal perspective” (Eur J Med Chem, 2021)
